T1: D3dgpA (human intestinal bacterium PUE, UniProt A0A3Q9WWX8)
T1 construct: gene dgpA; full length, 367 residues; His6-tag; pET-duet 1 (EcoRI/SalI), E. coli BL21 (DE3), Ni-NTA; about 45 kD; hexamer in solution; co-purifies with NAD(H)
T1 sequence (A0A3Q9WWX8 1-367): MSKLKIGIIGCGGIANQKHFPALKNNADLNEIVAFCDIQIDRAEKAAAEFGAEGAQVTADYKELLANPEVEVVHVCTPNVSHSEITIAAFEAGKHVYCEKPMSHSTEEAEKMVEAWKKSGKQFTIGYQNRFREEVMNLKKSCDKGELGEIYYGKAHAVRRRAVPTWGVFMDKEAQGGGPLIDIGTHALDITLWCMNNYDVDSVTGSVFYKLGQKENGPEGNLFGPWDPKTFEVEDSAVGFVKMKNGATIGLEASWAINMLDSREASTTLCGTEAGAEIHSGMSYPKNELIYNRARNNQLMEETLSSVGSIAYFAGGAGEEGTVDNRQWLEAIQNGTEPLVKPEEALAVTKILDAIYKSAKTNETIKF


What was measured:
D3dgpA [1] = biological target: T1, D3dgpA; assay: HPLC of […]”-oxo-puerarin formation with and without monosaccharide; format: biochemical; settings: 400 eq puerarin and methyl β-D-3-oxo-glucopyranoside, 800 eq monosaccharide to enzyme; 5 mM HEPES pH 7.5, 36.5°C, 10 min
[2] = biological target: D3dgpA, Gfo/Idh/MocA family glycoside oxidoreductase (dgpA cloned from Dorea sp. MRG-IFC3) (Dorea sp. MRG-IFC3); assay: not stated; purified His6-tagged D3dgpA in solution; the method is shown only in Supplementary Figure S5
D3dgpA [3] = biological target: T1, D3dgpA; assay: HPLC analysis of nucleotide co-purified with enzyme; format: binding; settings: bound in purified enzyme as isolated
purified protein = substrate: O=c1c(-c2ccc(O)cc2)coc2c([C@@H]3O[C@H](CO)[C@@H](O)[C@H](O)[C@H]3O)c(O)ccc12; assay: purified protein; format: biochemical, human intestinal bacterium PUE; settings: co-substrate 760 μM methyl β-D-3-oxo-glucopyranoside, 5 mM HEPES pH 7.5, 5 mM NaCl, 36.5°C

Molecule	relative inhibition (D3dgpA [1])	other results
CO[C@H]1O[C@H](CO)[C@@H](O)[C@H](O)[C@H]1O [methyl α-glucopyranoside]	decreased in the order of D-glucose > methyl ß-glucoside > methyl α-glucoside ≈ levoglucosan	–
D3dgpA, Gfo/Idh/MocA family glycoside oxidoreductase (dgpA cloned from Dorea sp. MRG-IFC3) (enzyme)	–	stoichiometry N [2]: 6
OC[C@H]1OC(O)[C@H](O)[C@@H](O)[C@@H]1O (stereo partly drawn) [D-glucose]	D-glucose exhibited the most inhibitory effects on the oxidation of puerarin	–
NC(=O)c1ccc[n+]([C@@H]2O[C@H](COP(=O)(O)OP(=O)(O)OC[C@H]3O[C@@H](n4cnc5c(N)ncnc54)[C@H](O)[C@@H]3O)[C@@H](O)[C@H]2O)c1 [NAD^+]	–	HPLC analysis of nucleotide co-purified with enzyme (D3dgpA [3]): The purified D3dgpA was found to contain an almost equimolar amount of NAD(H)
CO[C@@H]1O[C@H](CO)[C@@H](O)[C@H](O)[C@H]1O [methyl β-glucopyranoside]	decreased in the order of D-glucose > methyl ß-glucoside > methyl α-glucoside ≈ levoglucosan	–
O[C@@H]1[C@@H](O)[C@@H]2OC[C@@H](O2)[C@H]1O [levoglucosan]	decreased in the order of D-glucose > methyl ß-glucoside > methyl α-glucoside ≈ levoglucosan	–
D3dgpA (human intestinal bacterium PUE) (protein, full length, 367 residues; His6-tag; pET-duet 1 (EcoRI/SalI), E. coli BL21 (DE3), Ni-NTA; about 45 kD; hexamer in solution; co-purifies with NAD(H)) MSKLKIGIIGCGGIANQKHFPALKNNADLNEIVAFCDIQIDRAEKAAAEFGAEGAQVTADYKELLANPEVEVVHVCTPNVSHSEITIAAFEAGKHVYCEKPMSHSTEEAEKMVEAWKKSGKQFTIGYQNRFREEVMNLKKSCDKGELGEIYYGKAHAVRRRAVPTWGVFMDKEAQGGGPLIDIGTHALDITLWCMNNYDVDSVTGSVFYKLGQKENGPEGNLFGPWDPKTFEVEDSAVGFVKMKNGATIGLEASWAINMLDSREASTTLCGTEAGAEIHSGMSYPKNELIYNRARNNQLMEETLSSVGSIAYFAGGAGEEGTVDNRQWLEAIQNGTEPLVKPEEALAVTKILDAIYKSAKTNETIKF	–	Km (purified protein): 250 µM; kcat (purified protein): 32 s⁻¹

— paper PMC11239390, “Glycoside-metabolizing oxidoreductase D3dgpA from human gut bacterium” (Frontiers in Bioengineering and Biotechnology, 2024)
